Results reported in PubChem BioAssay (NCI).
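Values below derive from 48-hour exposures of cells grown in 96-well plates, with endpoints linearly interpolated between the two concentrations bracketing the appropriate inhibition level. At the GI50, growth is halved. TGI: total growth inhibition.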

Legend:
Experiment in all cases: growth of human tumour cells (NCI), 48 h
[1] = tested on: 786-0 renal
[2] = tested on: A498 renal
[3] = tested on: A549 NSCLC
[4] = tested on: ACHN renal
[5] = tested on: BT-549 breast
[6] = tested on: CAKI-1 renal
[7] = tested on: CCRF-CEM leukemia
[8] = tested on: COLO 205 colon
[9] = tested on: DU-145 prostate
[10] = tested on: EKVX NSCLC
[11] = tested on: HCC-2998 colon
[12] = tested on: HCT-116 colon
[13] = tested on: HCT-15 colon
[14] = tested on: HL-60(TB) leukemia
[15] = tested on: HOP-62 NSCLC
[16] = tested on: HOP-92 NSCLC
[17] = tested on: HS 578T breast
[18] = tested on: HT29 colon
[19] = tested on: IGROV1 ovarian
[20] = tested on: K-562 leukemia
[21] = tested on: KM12 colon
[22] = tested on: LOX IMVI melanoma
[23] = tested on: M14 melanoma
[24] = tested on: MALME-3M melanoma
[25] = tested on: MCF7 breast
[26] = tested on: MDA-MB-231 breast
[27] = tested on: MDA-MB-435
[28] = tested on: MDA-MB-468 breast
[29] = tested on: MOLT-4 leukemia
[30] = tested on: NCI-H226 lung
[31] = tested on: NCI-H23 lung
[32] = tested on: NCI-H460 lung
[33] = tested on: NCI-H522 lung
[34] = tested on: NCI/ADR-RES ovarian
[35] = tested on: OVCAR-3 ovarian
[36] = tested on: OVCAR-4 ovarian
[37] = tested on: OVCAR-5 ovarian
[38] = tested on: OVCAR-8 ovarian
[39] = tested on: PC-3 prostate
[40] = tested on: RPMI-8226 leukemia
[41] = tested on: RXF 393 renal
[42] = tested on: SF-268 CNS
[43] = tested on: SF-295 CNS
[44] = tested on: SF-539 CNS
[45] = tested on: SK-MEL-2 melanoma
[46] = tested on: SK-MEL-28 melanoma
[47] = tested on: SK-MEL-5 melanoma
[48] = tested on: SK-OV-3 ovarian
[49] = tested on: SN12C renal
[50] = tested on: SNB-19 CNS
[51] = tested on: SNB-75 CNS
[52] = tested on: SW-620 colon
[53] = tested on: T-47D breast
[54] = tested on: TK-10 renal
[55] = tested on: U251 CNS
[56] = tested on: UACC-257 melanoma
[57] = tested on: UACC-62 melanoma
[58] = tested on: UO-31 renal

SMILES: Cn1cc(NC(=O)c2cc(NC(=O)c3ccc(C#Cc4ccccc4)cc3)cn2C)cc1C(=O)NCCCN1CCOCC1
- GI50 [1]: 9.11 µM
- TGI [1]: 29.5 µM
- GI50 [2]: > 32.5 µM
- TGI [2]: > 32.5 µM
- GI50 [3]: 20 µM
- TGI [3]: > 32.5 µM
- GI50 [4]: 16.4 µM
- TGI [4]: > 32.5 µM
- GI50 [5]: 5.22 µM
- TGI [5]: 20 µM
- GI50 [6]: 17.5 µM
- TGI [6]: > 32.5 µM
- GI50 [7]: 6.76 µM
- TGI [7]: > 32.5 µM
- GI50 [8]: > 32.5 µM
- TGI [8]: > 32.5 µM
- GI50 [9]: 11.6 µM
- TGI [9]: > 32.5 µM
- GI50 [10]: 10.6 µM
- TGI [10]: > 32.5 µM
- GI50 [11]: 11.9 µM
- TGI [11]: > 32.5 µM
- GI50 [12]: 8.36 µM
- TGI [12]: > 32.5 µM
- GI50 [13]: 5.47 µM
- TGI [13]: 13.7 µM
- GI50 [14]: 5.19 µM
- TGI [14]: 32.3 µM
- GI50 [15]: 18 µM
- TGI [15]: > 32.5 µM
- GI50 [16]: 5.05 µM
- TGI [16]: 20.4 µM
- GI50 [17]: 7.04 µM
- TGI [17]: > 32.5 µM
- GI50 [18]: 6.62 µM
- TGI [18]: 22.9 µM
- GI50 [19]: > 32.5 µM
- TGI [19]: > 32.5 µM
- GI50 [20]: 8.4 µM
- TGI [20]: > 32.5 µM
- GI50 [21]: 11.2 µM
- TGI [21]: > 32.5 µM
- GI50 [22]: 4.94 µM
- TGI [22]: 9.38 µM
- GI50 [23]: 12.6 µM
- TGI [23]: > 32.5 µM
- GI50 [24]: 13.3 µM
- TGI [24]: > 32.5 µM
- GI50 [25]: 6.15 µM
- TGI [25]: 30.8 µM
- GI50 [26]: 10.3 µM
- TGI [26]: > 32.5 µM
- GI50 [27]: 9.91 µM
- TGI [27]: > 32.5 µM
- GI50 [28]: 7.75 µM
- TGI [28]: 25.5 µM
- GI50 [29]: 8.41 µM
- TGI [29]: > 32.5 µM
- GI50 [30]: 16.6 µM
- TGI [30]: > 32.5 µM
- GI50 [31]: 14.3 µM
- TGI [31]: > 32.5 µM
- GI50 [32]: 10.1 µM
- TGI [32]: > 32.5 µM
- GI50 [33]: 8.72 µM
- TGI [33]: > 32.5 µM
- GI50 [34]: 7.66 µM
- TGI [34]: 23.8 µM
- GI50 [35]: 6.21 µM
- TGI [35]: > 32.5 µM
- GI50 [36]: 25.6 µM
- TGI [36]: > 32.5 µM
- GI50 [37]: > 32.5 µM
- TGI [37]: > 32.5 µM
- GI50 [38]: 6.14 µM
- TGI [38]: 20.2 µM
- GI50 [39]: 12.2 µM
- TGI [39]: > 32.5 µM
- GI50 [40]: 5.61 µM
- TGI [40]: 32.3 µM
- GI50 [41]: 2.55 µM
- TGI [41]: 21.1 µM
- GI50 [42]: 12.2 µM
- TGI [42]: > 32.5 µM
- GI50 [43]: 12.6 µM
- TGI [43]: > 32.5 µM
- GI50 [44]: 6.37 µM
- TGI [44]: 14.5 µM
- GI50 [45]: 6.15 µM
- TGI [45]: 14.4 µM
- GI50 [46]: > 32.5 µM
- TGI [46]: > 32.5 µM
- GI50 [47]: 11.3 µM
- TGI [47]: > 32.5 µM
- GI50 [48]: > 32.5 µM
- TGI [48]: > 32.5 µM
- GI50 [49]: 7.08 µM
- TGI [49]: > 32.5 µM
- GI50 [50]: > 32.5 µM
- TGI [50]: > 32.5 µM
- GI50 [51]: 6.71 µM
- TGI [51]: > 32.5 µM
- GI50 [52]: 9.25 µM
- TGI [52]: > 32.5 µM
- GI50 [53]: 5.88 µM
- TGI [53]: > 32.5 µM
- GI50 [54]: > 32.5 µM
- TGI [54]: > 32.5 µM
- GI50 [55]: 9.01 µM
- TGI [55]: > 32.5 µM
- GI50 [56]: 18.9 µM
- TGI [56]: > 32.5 µM
- GI50 [57]: 11 µM
- TGI [57]: > 32.5 µM
- GI50 [58]: 14 µM
- TGI [58]: > 32.5 µM
